Earlier results in publication PMC8287861 (Frontiers in Microbiology, 2021).
Values after ≈ are worked out from the molar mass of the structure shown. Like-named read-outs stand apart in the source and are kept apart here.

Tests used:
SHV-12 [1] = conditions: SHV-12, class A; ref Tsivkovski et al. (2020)
CTX-M-14 = system: CTX-M-14; set-up: method as in Tsivkovski et al. (2020); conditions: CTX-M-14, class A; ref Tsivkovski et al. (2020)
NDM-1 = system: NDM-1; set-up: method as in Tsivkovski et al. (2020); conditions: class B, ref Tsivkovski et al. (2020)
P99 [2] = system: P99; set-up: method as in Tsivkovski et al. (2020); conditions: P99, class C; ref Tsivkovski et al. (2020)
IMP-1 [3] = system: IMP-1; set-up: method as in Tsivkovski et al. (2020); conditions: class B, ref Tsivkovski et al. (2020)
KPC-2 [4] = system: KPC-2
IMP-26 = system: IMP-26; set-up: method as in Tsivkovski et al. (2020); conditions: class B, ref Tsivkovski et al. (2020)
OXA-48 [5] = system: OXA-48; set-up: method as in Tsivkovski et al. (2020); conditions: OXA-48, class D; ref Tsivkovski et al. (2020)
CTX-M-15 [6] = system: CTX-M-15; set-up: method as in Tsivkovski et al. (2020); conditions: CTX-M-15, class A; ref Tsivkovski et al. (2020)
KPC-2 [7] = system: KPC-2; set-up: method as in Tsivkovski et al. (2020); conditions: KPC-2, class A; ref Tsivkovski et al. (2020)
VIM-1 [8] = system: VIM-1; set-up: method as in Tsivkovski et al. (2020); conditions: VIM-1, class B; ref Tsivkovski et al. (2020)
SME-2 = molecular target: SME-2; set-up: method as in Tsivkovski et al. (2020); conditions: ref Tsivkovski et al. (2020)
[9] = set-up: method as in Hecker et al., 2020; conditions: rats, doses of 30–100 mg/kg; ref Hecker et al., 2020
[10] = system: isogenic strains of P. aeruginosa that produced KPC; set-up: method as in Lomovskaya et al., 2020a; conditions: ref Lomovskaya et al., 2020a; for PV50: potency to enhance biapenem activity;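 as to PV50: read from a curve of biapenem MIC plotted against inhibitor concentration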
OXA-48 [11] = molecular target: OXA-48; set-up: method as in Tsivkovski et al. (2020); conditions: ref Tsivkovski et al. (2020)
OXA-23 [12] = molecular target: OXA-23; set-up: method as in Tsivkovski et al. (2020); conditions: ref Tsivkovski et al. (2020)
[13] = system: carbapenem-resistant strains of Enterobacterales (CRE); set-up: method as in Nelson et al. (2020a); conditions: with meropenem, ref Nelson et al. (2020a)
OXA-24 = molecular target: OXA-24; set-up: method as in Tsivkovski et al. (2020); conditions: ref Tsivkovski et al. (2020)
KPC-3 = molecular target: KPC-3; set-up: method as in Tsivkovski et al. (2020); conditions: ref Tsivkovski et al. (2020)
P99 [14] = molecular target: P99; set-up: method as in Tsivkovski et al. (2020); conditions: ref Tsivkovski et al. (2020)
TEM-43 = molecular target: TEM-43; set-up: method as in Tsivkovski et al. (2020); conditions: ref Tsivkovski et al. (2020)
VIM-1 [15] = molecular target: VIM-1; set-up: method as in Tsivkovski et al. (2020); conditions: ref Tsivkovski et al. (2020)
[16] = system: carbapenem resistant Acinetobacter baumannii; conditions: in combination with meropenem; majority of the subsets of strains; ref Nelson et al., 2020b
BKC-1 = molecular target: BKC-1; set-up: method as in Tsivkovski et al. (2020); conditions: ref Tsivkovski et al. (2020)
[17] = system: Acinetobacter baumannii mutants producing OXA-23; set-up: method as in Lomovskaya et al., 2020a; conditions: overexpression of efflux pumps; ref Lomovskaya et al., 2020a
OXA-58 = molecular target: OXA-58; set-up: method as in Tsivkovski et al. (2020); conditions: ref Tsivkovski et al. (2020)
[18] = system: ESBL and CRE producing strains of Enterobacterales; set-up: method as in Nelson et al. (2020a; 2020b); conditions: ref Nelson et al. (2020a; 2020b)
FRI-1 = molecular target: FRI-1; set-up: method as in Tsivkovski et al. (2020); conditions: ref Tsivkovski et al. (2020)
OXA-23 [19] = system: OXA-23; set-up: method as in Tsivkovski et al. (2020); conditions: OXA-23, class D; ref Tsivkovski et al. (2020)
SHV-12 [20] = molecular target: SHV-12; set-up: method as in Tsivkovski et al. (2020); conditions: ref Tsivkovski et al. (2020)
[21] = set-up: method as in Sabet et al., 2020; conditions: plasma QPX7728 exposure associated with 8 μg/ml; ref Sabet et al., 2020
[22] = system: KPC-producing porin/efflux mutants of K. pneumoniae; conditions: ref Lomovskaya et al.
IMP-1 [23] = molecular target: IMP-1; set-up: method as in Tsivkovski et al. (2020); conditions: ref Tsivkovski et al. (2020)
CTX-M-15 [24] = molecular target: CTX-M-15; set-up: method as in Tsivkovski et al. (2020); conditions: ref Tsivkovski et al. (2020)
[25] = set-up: method as in Hecker et al., 2020; conditions: ref Hecker et al. (2020)
[26] = inactivation of OmpK35 and OmpK36 and increased efflux, 2020a
[27] = same mutations (OmpK35, OmpK36, increased efflux), 2017

NC(=O)[C@@H]1CC[C@@H]2CN1C(=O)N2OS(=O)(=O)O [Avibactam, avibactam]
IC50 (SHV-12 [1]): 0.61 ± 0.19 nM | IC50 (CTX-M-14): 1.4 ± 0.4 nM | IC50 (NDM-1): > 160 µM | IC50 (P99 [2]): 26 ± 7 nM | IC50 (IMP-1 [3]): > 160 µM | residence time (KPC-2 [4]; ref Ehmann et al., 2013): ~2 h | IC50 (IMP-26): > 160 µM | IC50 (OXA-48 [5]): […] | IC50 (CTX-M-15 [6]): 0.56 ± 0.25 nM | IC50 (KPC-2 [7]): […] | IC50 (VIM-1 [8]): > 160 µM

O=C(O)c1c(F)ccc2c1OB(O)[C@@H]1C[C@H]21 [QPX7728]
IC50 (SHV-12 [1]): 1.9 ± 0.6 nM | IC50 (CTX-M-14): 0.94 ± 0.2 nM | Kd (SME-2): 0.15 ± 0.02 nM | oral bioavailability [9]: 43–53% | PV50 ([10]; PAM4126, mexR (MexAB-OprM)): 2 µg/mL | PV50 ([10]; PAM4129, nfxB (MexCD-OprJ)): 0.5 µg/mL | PV50 ([10]; PAM4132, mexT (MexEF-OprM)): 1 µg/mL | PV50 ([10]; PAM4150, mexZ (MexXY-OprM)): 1 µg/mL | PV50 ([10]; PAM4224, Wild-type): 1 µg/mL | PV50 ([10]; PAM4365, MexA::Tet): 1 µg/mL | reduction in potency ([10]; mexAB-oprM efflux operon overexpressed): No more than two-fold reduction in potency | effect of inactivation of the carbapenem porin OprD on potency [10]: did not have any effect | IC50 (P99 [2]): 22 ± 6 nM | IC50 (IMP-1 [3]): 0.61 ± 0.07 µM | Kd (OXA-48 [11]): 0.13 ± 0.01 nM | Kd (OXA-23 [12]): 1.6 ± 0.2 nM | TPC90 ([13]; 598 CRE, breakpoint of 8 μg/ml): 4 µg/mL | TPC90 ([13]; subsets with carbapenemase production and non-β-lactamase-mediated resistance mechanisms): 4 to 8 µg/mL | Kd (OXA-24): 0.58 ± 0.1 nM | Kd (KPC-3): 0.31 ± 0.06 nM | Kd (P99 [14]): 0.53 ± 0.06 nM | Kd (KPC-2 [4]; ref Tsivkovski et al. (2020)): 0.25 ± 0.03 nM | Kd (TEM-43): 0.17 ± 0.02 nM | Kd (VIM-1 [15]; VIM-1 (text b23 calls it Ki)): 7.5 ± 2.1 nM | Ki (VIM-1 [15]; VIM-1, competitive inhibitor): ~7 nM | TPC90 [16]: less than or equal to 8 μg/ml | IC50 (OXA-48 [5]): 1.1 ± 0.4 nM | Kd (BKC-1): 0.06 ± 0.005 nM | effect of efflux on potency to inhibit β-lactamase [17]: no effect of efflux on the potency | Kd (OXA-58): 3.2 ± 0.3 nM | IC50 (CTX-M-15 [6]): 1.2 ± 0.1 nM | TPC90 ([18]; in combination with aztreonam at 8 μg/ml (FDA susceptible breakpoint)): 4 µg/mL | TPC90 ([18]; in combination with cefepime at 8 μg/ml (FDA susceptible breakpoint)): 4 µg/mL | IC50 (KPC-2 [7]): 2.9 ± 0.4 nM | Kd (FRI-1): 0.11 ± 0.01 nM | IC50 (VIM-1 [8]): 0.014 ± 0.004 µM | IC50 (OXA-23 [19]): 1.2 ± 0.4 nM | Kd (SHV-12 [20]): 28 ± 4 nM | efficacy of plasma exposure [21]: efficacious in animal models of infection | potency to completely inhibit KPC ([22]; before porin/efflux mutations, 2020a): 0.125 µg/mL (≈ 0.563 µM) | potency to completely inhibit KPC [22, 26]: 4 µg/mL (≈ 18 µM) | reduction of the potency to completely inhibit KPC [22, 26]: ca. 32 fold | Kd (IMP-1 [23]; IMP-1 (text b23 calls it Ki)): 240 ± 30 nM | Ki (IMP-1 [23]; IMP-1, competitive inhibitor): ~240 nM | Kd (CTX-M-15 [24]): 0.11 ± 0.02 nM

COc1ccc2c(c1C(=O)O)OB(O)CC2 [RPX7610]
metabolic stability (in words) [25]: metabolic liability | effect of efflux and porin mutations (β-lactamases; ref Hecker et al. (2020)): minimally affected by efflux and porin mutations | β-lactamase inhibition (in words) (β-lactamases; ref Hecker et al. (2020)): potent inhibition of all target β-lactamases

O=C(NC1CCNCC1)[C@@H]1CC[C@@H]2CN1C(=O)N2OS(=O)(=O)O [Relebactam, relebactam]
IC50 (SHV-12 [1]): 330 ± 50 nM | IC50 (CTX-M-14): 34 ± 10 nM | IC50 (NDM-1): > 160 µM | IC50 (P99 [2]): 36 ± 4 nM | IC50 (IMP-1 [3]): > 160 µM | residence time (KPC-2 [4]; ref Papp-Wallace et al., 2018): 1.5 h | IC50 (IMP-26): > 160 µM | IC50 (CTX-M-15 [6]): 76 ± 3 nM | IC50 (VIM-1 [8]): > 160 µM

O=C(O)C[C@@H]1CC[C@H](NC(=O)Cc2cccs2)B(O)O1 [Vaborbactam, vaborbactam]
IC50 (SHV-12 [1]): 56 ± 11 nM | IC50 (CTX-M-14): 110 ± 40 nM | IC50 (NDM-1): > 160 µM | PV50 ([10]; PAM4126, mexR (MexAB-OprM)): 64 µg/mL | PV50 ([10]; PAM4129, nfxB (MexCD-OprJ)): 4 µg/mL | PV50 ([10]; PAM4132, mexT (MexEF-OprM)): >64 µg/mL | PV50 ([10]; PAM4150, mexZ (MexXY-OprM)): 8 µg/mL | PV50 ([10]; PAM4224, Wild-type): 8 µg/mL | PV50 ([10]; PAM4365, MexA::Tet): 0.5 µg/mL | reduction in potency ([10]; overproduction of the MexAB-OprM or the MexEF-OprN efflux pumps): ≥ 8 fold | IC50 (P99 [2]): 88 ± 38 nM | IC50 (IMP-1 [3]): > 160 µM | residence time (KPC-2 [4]; ref Tsivkovski and Lomovskaya, 2019): ~6 h | IC50 (IMP-26): > 160 µM | IC50 (CTX-M-15 [6]): 92 ± 13 nM | potency against other class A or class C beta lactamases compared to KPC enzymes (β-lactamases; fold less potent, ref Tsivkovski and Lomovskaya, 2019): 10–50 fold | IC50 (KPC-2 [7]): 110 ± 30 nM | IC50 (VIM-1 [8]): > 160 µM | potency to completely inhibit KPC ([22]; before porin/efflux mutations, 2017): 0.25 µg/mL (≈ 0.841 µM) | potency to completely inhibit KPC [22, 27]: 64 µg/mL (≈ 215 µM) | reduction of the potency [22, 27]: 256 fold
